# Results from PubChem BioAssay (NCI).
#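 These data come from cells grown in 96-well plates and exposed to compound for 48 hours at five concentrations. GI50 = concentration required for 50% inhibition of growth. At the TGI there is no net growth.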
# Assays:
# Assay in all cases: NCI tumour cell line growth inhibition, 48 h
# SNB-19 CNS = system: SNB-19 CNS
# SK-MEL-2 melanoma = system: SK-MEL-2 melanoma
# KM12 colon = system: KM12 colon
# UACC-257 melanoma = system: UACC-257 melanoma
# IGROV1 ovarian = system: IGROV1 ovarian
# HCT-15 colon = system: HCT-15 colon
# MCF7 breast = system: MCF7 breast
# OVCAR-5 ovarian = system: OVCAR-5 ovarian
# HCC-2998 colon = system: HCC-2998 colon
# CAKI-1 renal = system: CAKI-1 renal
# RXF 393 renal = system: RXF 393 renal
# HL-60(TB) leukemia = system: HL-60(TB) leukemia
# HOP-92 NSCLC = system: HOP-92 NSCLC
# OVCAR-4 ovarian = system: OVCAR-4 ovarian
# A498 renal = system: A498 renal
# SK-OV-3 ovarian = system: SK-OV-3 ovarian
# SK-MEL-28 melanoma = system: SK-MEL-28 melanoma
# TK-10 renal = system: TK-10 renal
# RPMI-8226 leukemia = system: RPMI-8226 leukemia
# NCI-H460 lung = system: NCI-H460 lung
# MDA-MB-435 = system: MDA-MB-435
# HCT-116 colon = system: HCT-116 colon
# U251 CNS = system: U251 CNS
# OVCAR-8 ovarian = system: OVCAR-8 ovarian
# T-47D breast = system: T-47D breast
# DU-145 prostate = system: DU-145 prostate
# SF-539 CNS = system: SF-539 CNS
# HT29 colon = system: HT29 colon
# NCI/ADR-RES ovarian = system: NCI/ADR-RES ovarian
# UACC-62 melanoma = system: UACC-62 melanoma
# SF-295 CNS = system: SF-295 CNS
# NCI-H522 lung = system: NCI-H522 lung
# 786-0 renal = system: 786-0 renal
# A549 NSCLC = system: A549 NSCLC
# SR leukemia = system: SR leukemia
# UO-31 renal = system: UO-31 renal
# MOLT-4 leukemia = system: MOLT-4 leukemia
# ACHN renal = system: ACHN renal
# MALME-3M melanoma = system: MALME-3M melanoma
# M14 melanoma = system: M14 melanoma
# MDA-MB-231 breast = system: MDA-MB-231 breast
# SN12C renal = system: SN12C renal
# SF-268 CNS = system: SF-268 CNS
# EKVX NSCLC = system: EKVX NSCLC
# NCI-H226 lung = system: NCI-H226 lung
# CCRF-CEM leukemia = system: CCRF-CEM leukemia
# SW-620 colon = system: SW-620 colon
# NCI-H23 lung = system: NCI-H23 lung
# SK-MEL-5 melanoma = system: SK-MEL-5 melanoma
# PC-3 prostate = system: PC-3 prostate
# SNB-75 CNS = system: SNB-75 CNS
# K-562 leukemia = system: K-562 leukemia
# COLO 205 colon = system: COLO 205 colon
# HS 578T breast = system: HS 578T breast
# HOP-62 NSCLC = system: HOP-62 NSCLC
compound,measurement,setting,value
N#Cc1cccc(NC(=O)c2cc(-c3ccc(F)cc3F)ccc2O)c1,GI50,SNB-19 CNS,2.37 µM
same,TGI,SNB-19 CNS,14.3 µM
same,GI50,SK-MEL-2 melanoma,0.768 µM
same,TGI,SK-MEL-2 melanoma,3.85 µM
same,GI50,KM12 colon,2.72 µM
same,TGI,KM12 colon,8.24 µM
same,GI50,UACC-257 melanoma,0.893 µM
same,TGI,UACC-257 melanoma,5.32 µM
same,GI50,IGROV1 ovarian,2.6 µM
same,TGI,IGROV1 ovarian,> 100 µM
same,GI50,HCT-15 colon,1.9 µM
same,TGI,HCT-15 colon,6.93 µM
same,GI50,MCF7 breast,1.87 µM
same,TGI,MCF7 breast,10.7 µM
same,GI50,OVCAR-5 ovarian,3.39 µM
same,TGI,OVCAR-5 ovarian,30.2 µM
same,GI50,HCC-2998 colon,3.22 µM
same,TGI,HCC-2998 colon,12.4 µM
same,GI50,CAKI-1 renal,1.31 µM
same,TGI,CAKI-1 renal,4.74 µM
same,GI50,RXF 393 renal,2.25 µM
same,TGI,RXF 393 renal,6.6 µM
same,GI50,HL-60(TB) leukemia,1.8 µM
same,TGI,HL-60(TB) leukemia,5.27 µM
same,GI50,HOP-92 NSCLC,0.338 µM
same,TGI,HOP-92 NSCLC,1.93 µM
same,GI50,OVCAR-4 ovarian,0.899 µM
same,TGI,OVCAR-4 ovarian,14.2 µM
same,GI50,A498 renal,0.374 µM
same,TGI,A498 renal,2.12 µM
same,GI50,SK-OV-3 ovarian,2.35 µM
same,TGI,SK-OV-3 ovarian,8.88 µM
same,GI50,SK-MEL-28 melanoma,1.38 µM
same,GI50,TK-10 renal,3.49 µM
same,TGI,TK-10 renal,15.7 µM
same,GI50,RPMI-8226 leukemia,0.562 µM
same,TGI,RPMI-8226 leukemia,3.17 µM
same,GI50,NCI-H460 lung,1.42 µM
same,TGI,NCI-H460 lung,13.3 µM
same,GI50,MDA-MB-435,1.37 µM
same,TGI,MDA-MB-435,6.32 µM
same,GI50,HCT-116 colon,1.89 µM
same,TGI,HCT-116 colon,8.91 µM
same,GI50,U251 CNS,2.56 µM
same,TGI,U251 CNS,25.5 µM
same,GI50,OVCAR-8 ovarian,2.88 µM
same,TGI,OVCAR-8 ovarian,> 100 µM
same,GI50,T-47D breast,0.496 µM
same,TGI,T-47D breast,6.57 µM
same,GI50,DU-145 prostate,2.63 µM
same,TGI,DU-145 prostate,> 100 µM
same,GI50,SF-539 CNS,2.54 µM
same,GI50,HT29 colon,5.71 µM
same,TGI,HT29 colon,> 100 µM
same,GI50,NCI/ADR-RES ovarian,2.11 µM
same,TGI,NCI/ADR-RES ovarian,9.92 µM
same,GI50,UACC-62 melanoma,0.522 µM
same,TGI,UACC-62 melanoma,2.7 µM
same,GI50,SF-295 CNS,1.96 µM
same,TGI,SF-295 CNS,4.44 µM
same,GI50,NCI-H522 lung,0.642 µM
same,TGI,NCI-H522 lung,10.9 µM
same,GI50,786-0 renal,3.06 µM
same,TGI,786-0 renal,10.7 µM
same,GI50,A549 NSCLC,3.52 µM
same,TGI,A549 NSCLC,> 100 µM
same,GI50,SR leukemia,2.91 µM
same,TGI,SR leukemia,23.2 µM
same,GI50,UO-31 renal,1.82 µM
same,TGI,UO-31 renal,9.03 µM
same,GI50,MOLT-4 leukemia,2.55 µM
same,TGI,MOLT-4 leukemia,8.6 µM
same,GI50,ACHN renal,2.65 µM
same,TGI,ACHN renal,10.1 µM
same,GI50,MALME-3M melanoma,1.01 µM
same,TGI,MALME-3M melanoma,4 µM
same,GI50,M14 melanoma,2.25 µM
same,TGI,M14 melanoma,8.89 µM
same,GI50,MDA-MB-231 breast,2.12 µM
same,TGI,MDA-MB-231 breast,5.93 µM
same,GI50,SN12C renal,1.44 µM
same,TGI,SN12C renal,6.46 µM
same,GI50,SF-268 CNS,2.38 µM
same,TGI,SF-268 CNS,20.7 µM
same,GI50,EKVX NSCLC,2.68 µM
same,TGI,EKVX NSCLC,9.32 µM
same,GI50,NCI-H226 lung,1.86 µM
same,TGI,NCI-H226 lung,7.36 µM
same,GI50,CCRF-CEM leukemia,3.25 µM
same,TGI,CCRF-CEM leukemia,19.3 µM
same,GI50,SW-620 colon,2.99 µM
same,TGI,SW-620 colon,17.1 µM
same,GI50,NCI-H23 lung,1.49 µM
same,TGI,NCI-H23 lung,6.23 µM
same,GI50,SK-MEL-5 melanoma,0.507 µM
same,TGI,SK-MEL-5 melanoma,1.94 µM
same,GI50,PC-3 prostate,2.89 µM
same,TGI,PC-3 prostate,17.9 µM
same,GI50,SNB-75 CNS,1.29 µM
same,TGI,SNB-75 CNS,3.88 µM
same,GI50,K-562 leukemia,1.51 µM
same,TGI,K-562 leukemia,> 100 µM
same,GI50,COLO 205 colon,11.5 µM
same,TGI,COLO 205 colon,25.1 µM
same,GI50,HS 578T breast,2.02 µM
same,TGI,HS 578T breast,7.21 µM
same,GI50,HOP-62 NSCLC,2.39 µM
same,TGI,HOP-62 NSCLC,7.96 µM
